Source: PubChem BioAssay AID493040 (Abbott Labs, 2011)
Active and inactive are the calls of the source. No rule for the calls is given here.

Legend:
Assay in all cases: PubChem AID 493040
[1] = target: Epidermal growth factor receptor (Homo sapiens) (UniProt P00533); conditions: kinase panel binding, pKi; EGFR
[2] = target: Rho-associated protein kinase 2 (Homo sapiens) (UniProt O75116); conditions: kinase panel binding, pKi; ROCK2
[3] = target: Serine/threonine-protein kinase PLK3 (Homo sapiens) (UniProt Q9H4B4); conditions: kinase panel binding, pKi
Chain of Serine/threonine-protein kinase PLK3 (Homo sapiens) (Q9H4B4 whole entry, looked up): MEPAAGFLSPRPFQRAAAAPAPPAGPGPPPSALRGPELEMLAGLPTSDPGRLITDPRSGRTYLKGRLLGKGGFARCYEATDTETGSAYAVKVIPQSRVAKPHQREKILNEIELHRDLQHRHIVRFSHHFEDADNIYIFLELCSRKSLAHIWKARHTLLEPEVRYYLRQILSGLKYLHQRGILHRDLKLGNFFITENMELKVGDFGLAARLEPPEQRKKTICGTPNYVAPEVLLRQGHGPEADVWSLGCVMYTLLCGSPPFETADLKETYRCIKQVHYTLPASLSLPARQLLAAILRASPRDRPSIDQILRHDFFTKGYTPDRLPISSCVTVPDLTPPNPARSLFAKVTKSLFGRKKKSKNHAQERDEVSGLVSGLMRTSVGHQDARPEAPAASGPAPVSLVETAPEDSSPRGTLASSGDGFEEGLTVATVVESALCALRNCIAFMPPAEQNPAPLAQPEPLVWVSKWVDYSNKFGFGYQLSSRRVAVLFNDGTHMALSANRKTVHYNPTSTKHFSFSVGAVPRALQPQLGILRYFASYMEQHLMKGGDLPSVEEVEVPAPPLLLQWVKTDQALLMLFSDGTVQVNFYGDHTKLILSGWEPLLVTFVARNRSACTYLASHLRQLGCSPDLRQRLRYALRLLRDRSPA

[4] = target: Serine/threonine-protein kinase Sgk2 (Homo sapiens) (UniProt Q9HBY8); conditions: kinase panel binding, pKi; SGK
Chain of Serine/threonine-protein kinase Sgk2 (Homo sapiens) (Q9HBY8 whole entry, looked up): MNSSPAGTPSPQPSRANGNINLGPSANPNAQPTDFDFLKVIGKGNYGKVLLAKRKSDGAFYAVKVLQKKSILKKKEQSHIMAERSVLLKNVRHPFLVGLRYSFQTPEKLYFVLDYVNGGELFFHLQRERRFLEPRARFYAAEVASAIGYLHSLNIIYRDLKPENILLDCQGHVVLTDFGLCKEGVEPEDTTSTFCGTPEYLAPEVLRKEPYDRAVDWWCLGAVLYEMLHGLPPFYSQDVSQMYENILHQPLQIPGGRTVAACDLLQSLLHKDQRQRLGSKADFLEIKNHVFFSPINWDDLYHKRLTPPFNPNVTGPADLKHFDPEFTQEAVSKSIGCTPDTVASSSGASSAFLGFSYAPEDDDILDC

Chain of Epidermal growth factor receptor (Homo sapiens) (P00533 whole entry, looked up): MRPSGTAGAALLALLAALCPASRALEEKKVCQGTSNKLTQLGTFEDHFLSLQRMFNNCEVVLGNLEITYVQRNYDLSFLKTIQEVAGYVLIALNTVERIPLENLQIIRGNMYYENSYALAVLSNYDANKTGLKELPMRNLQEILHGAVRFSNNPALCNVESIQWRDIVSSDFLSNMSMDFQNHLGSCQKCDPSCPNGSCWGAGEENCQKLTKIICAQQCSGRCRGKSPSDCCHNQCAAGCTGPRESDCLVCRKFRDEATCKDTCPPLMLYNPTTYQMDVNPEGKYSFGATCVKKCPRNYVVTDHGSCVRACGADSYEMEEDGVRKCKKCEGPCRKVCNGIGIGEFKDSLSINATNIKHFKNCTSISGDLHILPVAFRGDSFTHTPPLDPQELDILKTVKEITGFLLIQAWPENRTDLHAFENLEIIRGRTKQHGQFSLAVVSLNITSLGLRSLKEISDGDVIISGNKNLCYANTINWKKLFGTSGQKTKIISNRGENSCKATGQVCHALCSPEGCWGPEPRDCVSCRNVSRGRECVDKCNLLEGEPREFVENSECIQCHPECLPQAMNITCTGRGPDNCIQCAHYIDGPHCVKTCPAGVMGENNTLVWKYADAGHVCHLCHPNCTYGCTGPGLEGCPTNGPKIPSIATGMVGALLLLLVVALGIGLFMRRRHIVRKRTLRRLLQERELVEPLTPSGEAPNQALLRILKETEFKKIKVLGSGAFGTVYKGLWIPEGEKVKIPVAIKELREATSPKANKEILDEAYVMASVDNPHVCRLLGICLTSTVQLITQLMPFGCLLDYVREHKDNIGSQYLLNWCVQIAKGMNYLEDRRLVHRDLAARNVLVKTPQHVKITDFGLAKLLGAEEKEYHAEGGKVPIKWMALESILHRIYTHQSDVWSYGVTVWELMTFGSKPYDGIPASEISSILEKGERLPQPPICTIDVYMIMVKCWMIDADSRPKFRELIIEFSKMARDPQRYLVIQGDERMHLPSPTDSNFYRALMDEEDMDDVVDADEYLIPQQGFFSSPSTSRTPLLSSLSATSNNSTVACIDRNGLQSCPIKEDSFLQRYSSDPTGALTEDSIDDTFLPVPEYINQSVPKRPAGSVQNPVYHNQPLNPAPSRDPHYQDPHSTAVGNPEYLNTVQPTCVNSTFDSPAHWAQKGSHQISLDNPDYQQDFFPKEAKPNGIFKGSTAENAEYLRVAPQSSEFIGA
Chain of Rho-associated protein kinase 2 (Homo sapiens) (O75116 whole entry, looked up): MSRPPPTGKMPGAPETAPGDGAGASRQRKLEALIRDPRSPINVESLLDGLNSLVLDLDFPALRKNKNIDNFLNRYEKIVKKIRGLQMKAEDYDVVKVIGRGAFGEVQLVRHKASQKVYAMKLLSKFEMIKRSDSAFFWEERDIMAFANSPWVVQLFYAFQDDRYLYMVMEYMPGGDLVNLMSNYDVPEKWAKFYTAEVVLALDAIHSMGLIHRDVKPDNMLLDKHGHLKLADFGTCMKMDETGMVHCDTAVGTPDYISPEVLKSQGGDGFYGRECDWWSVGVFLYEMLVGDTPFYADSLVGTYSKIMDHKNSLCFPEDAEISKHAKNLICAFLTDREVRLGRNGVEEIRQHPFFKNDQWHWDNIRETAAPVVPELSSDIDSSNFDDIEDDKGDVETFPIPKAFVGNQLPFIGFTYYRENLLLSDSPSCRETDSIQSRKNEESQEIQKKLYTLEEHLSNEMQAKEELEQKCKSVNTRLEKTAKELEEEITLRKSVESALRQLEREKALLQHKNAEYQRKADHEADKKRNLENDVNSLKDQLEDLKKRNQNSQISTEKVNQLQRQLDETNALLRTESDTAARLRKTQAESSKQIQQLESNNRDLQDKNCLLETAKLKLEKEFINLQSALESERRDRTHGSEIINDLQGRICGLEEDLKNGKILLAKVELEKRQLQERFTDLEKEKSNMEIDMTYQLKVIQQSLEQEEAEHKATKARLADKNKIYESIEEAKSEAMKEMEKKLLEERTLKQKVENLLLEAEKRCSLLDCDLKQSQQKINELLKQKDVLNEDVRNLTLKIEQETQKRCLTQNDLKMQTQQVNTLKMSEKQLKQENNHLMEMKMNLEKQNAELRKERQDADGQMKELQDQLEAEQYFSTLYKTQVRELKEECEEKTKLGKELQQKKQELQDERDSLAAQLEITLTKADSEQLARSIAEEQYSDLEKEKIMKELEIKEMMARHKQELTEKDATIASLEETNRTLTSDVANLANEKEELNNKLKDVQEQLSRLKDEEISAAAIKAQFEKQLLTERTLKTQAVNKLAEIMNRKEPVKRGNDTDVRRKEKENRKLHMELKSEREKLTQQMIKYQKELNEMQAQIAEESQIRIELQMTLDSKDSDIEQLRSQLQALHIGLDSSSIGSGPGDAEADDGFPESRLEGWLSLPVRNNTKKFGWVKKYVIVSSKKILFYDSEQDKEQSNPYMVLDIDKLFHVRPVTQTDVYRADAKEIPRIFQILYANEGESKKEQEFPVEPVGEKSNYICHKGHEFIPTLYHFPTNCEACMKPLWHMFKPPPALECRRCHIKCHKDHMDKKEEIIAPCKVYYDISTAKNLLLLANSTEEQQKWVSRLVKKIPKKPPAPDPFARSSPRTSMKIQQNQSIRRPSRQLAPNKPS

Ki [1]: 251 nM
Ki [2]: > 7940 nM (inactive)
Ki [3]: 7.94 nM
Ki [4]: > 10000 nM (inactive)
SMILES: COc1cc2ncn(-c3cc(OCc4ccccc4C(F)(F)F)c(C(N)=O)s3)c2cc1OC
